Source: patent publication US20160166638A1, “LACTOFERRIN-OSTEOPONTIN-IRON COMPLEX” (NESTEC S.A., priority 2013, published 2016)

Assay: Colour change of iron fortified strawberry-banana yoghurt after flash pasteurization (CIELAB colorimetry)
Type: physicochemical
Settings: colour difference vs yoghurt with no iron salts; Jogolino Strawberry/Banana yoghurt, approx. 0.8 mg iron per 100 g; flash pasteurized at 105° C. for 2 minutes
Procedure: Commercial yoghurt, Nestlé Jogolino™ Strawberry/Banana yoghurt containing 15% banana puree and 10% strawberry puree, was iron fortified by the addition of different iron containing materials to 5 kg yoghurt as reported in the table below. The amounts were chosen to provide approximately 0.8 mg iron per 100 g yoghurt. A 100 g serving of yoghurt with that level of iron would provide 15% of the recommended daily amount of iron for an infant [Official Journal of the European Union, Commission Directive 2006/125/EC].
For the lactoferrin-osteopontin-iron complex (Trial B), the powder from Example 1 was added to yoghurt at a level of 28 g per 5 kg yoghurt. The resulting yoghurt composition comprised 5.6 g powder per kg which is 4 g LF-OPN-Fe complex per kg.
The yoghurts were flash pasteurized at 105° C. for 2 minutes. Colour measurements were performed in 1×1 cm polystyrene cuvettes using an X-Rite ColorEye 7000A colorimeter. The colorimeter was set up with a D65 light source, 10 degree observer angle and with specular component included. The colour difference between the yoghurt with no iron salts and the iron fortified yoghurt was measured for each iron salt and expressed as ΔEab* using the CIELAB colour scale.

Row | Structure (SMILES) | ΔEab*
1 | O.O=S(=O)([O-])[O-].[Fe+2] [FeSO4 × H2O] | 4.74
2 | O.O=C([O-])CN(CCN(CC(=O)[O-])CC(=O)[O-])CC(=O)[O-].[Fe+3].[Na+] [NaFeEDTA × H2O] | 3.11
